Assay results from patent US20230087950A1, “METHOD FOR SYNTHESIZING DOPA OLIGOPEPTIDE INTERMEDIATE AND USE, COMPOSITION AND PREPARATION THEREOF” (HAINAN UNIVERSITY, priority 2019, published 2023).
“Also recorded” adds a separate entry of the source. Where a SMILES comes first, the peptide text is derived from it. [ ]: non-standard residue; d: D form. The star is where a group is joined. Dopa = N[C@@H](Cc1ccc(O)c(O)c1)C(=O)O; Stearoyl = CCCCCCCCCCCCCCCCCC(=O)*; Palmitoyl = CCCCCCCCCCCCCCCC(=O)*; Myristoyl = CCCCCCCCCCCCCC(=O)*

Key:
[1] = rat liver homogenate; cited from earlier work
[2] = Gelation tests of L-DOPA-containing lipodipeptides in organic solvent/water; assay type: physicochemical; details: for Gel formation: organic solvents (MeOH, ethanol, toluene, THF, DMSO, DMF) with water; for Gel formation / Range of gelation concentrations: result in words
Experimental: (§1) 1) Six samples of 40 mg FDD-16 was added into six 2 ml centrifuge tubes, followed by addition of 1 ml of respective organic solvents. Mother solutions were prepared using MeOH, ethanol, toluene, THF, DMSO, and DMF, respectively.
(§2) 2) Aliquots of 50 μl of the above mother solutions were added, respectively, to nine 2 ml centrifuge tubes, followed by addition of organic solvents (MeOH, ethanol, toluene, THF, DMSO, DMF, respectively). The volume ratios of the organic solvent to distilled water were 1:9, 2:8, 3:7, 4:6, 5:5, 6:4, 7:3, 8:2 and 9:1, respectively. Tests of each solvent ratio were repeated 3 times. Gel formation rates and the corresponding sample concentrations were marked down.
The experiments were performed like those of FDD-16.

[3] = in vivo; cited from earlier work
[4] = Appearance and stability of gels by turning the tubes upside down; assay type: physicochemical; details: tubes turned upside down, standing for long time
Text: The appearance and stability of gels formed from FDD-16 was studied by turning the tubes upside down and. […] This shed lights on future druggability study of FDD-16 using MeOH, ethanol, THF, DMSO and DMF as solvents. See FIG. 1 for gel formation experiments.

[5] = Gelation tests of conjugates of fatty acid and L-DOPA in organic solvent/water; assay type: physicochemical; details: Table 3
Experimental: as §1, §2
Tests were performed according to the tests done for FDD-16.

Row | Gelation concentration ([2]; DMF/water, Table 2) | Gelation concentration ([2]; DMSO/water, Table 2) | Gelation concentration ([2]; Ethanol/water, Table 1) | Gelation concentration ([2]; MeOH/water, Table 1) | Range of gelation concentrations [2] | SMILES | Gel formation [2] | further results
1 | – | – | – | – | – | N[C@@H](Cc1ccc(O)c(O)c1)C(=O)N[C@@H](CC(=O)O)C(=O)O [H-DOPA-Asp-OH] (H-[Dopa]-Asp-OH) | – | half-life [1]: about 174 min
2 | 14~26 g/mL | 16~30 g/mL | 12~26 g/mL | 10~16 g/mL | narrower than those of FDD-16 and FDD-14 | CCCCCCCCCCCCCCCCCC(=O)N[C@@H](Cc1ccc(O)c(O)c1)C(=O)N[C@@H](CC(=O)O)C(=O)O [FDD-18] (Stearoyl-[Dopa]-Asp-OH) | could form stable gels; also recorded: formed gels in MeOH, ethanol, DMSO and DMF; also recorded: higher possibilities to form gels; also recorded: can form stable gels | –
3 | 6~20 g/mL | 8~22 g/mL | 8~20 g/mL | 8~22 g/mL | wide range of gelation concentrations | CCCCCCCCCCCCCC(=O)N[C@@H](Cc1ccc(O)c(O)c1)C(=O)N[C@@H](CC(=O)O)C(=O)O [FDD-14] (Myristoyl-[Dopa]-Asp-OH) | could form stable gels; also recorded: formed gels in MeOH, ethanol, THF, DMSO and DMF; also recorded: higher possibilities to form gels; also recorded: can form stable gels | Gelation concentration ([2]; THF/water, Table 2): 6~8 g/mL
4 | – | – | – | – | – | N[C@@H](Cc1ccc(O)c(O)c1)C(=O)O [L-DOPA] | – | bioavailability [3]: 1-3%; time of effective blood drug concentration [3]: 50 min
5 | 6~22 g/mL | 6~28 g/mL | 6~24 g/mL | 6~26 g/mL | wide range of gelation concentrations | CCCCCCCCCCCCCCCC(=O)N[C@@H](Cc1ccc(O)c(O)c1)C(=O)N[C@@H](CC(=O)O)C(=O)O [FDD-16] (Palmitoyl-[Dopa]-Asp-OH) | could form stable gels; also recorded: formed gels in MeOH, ethanol, THF, DMSO and DMF; also recorded: can form stable gels | Gelation concentration ([2]; THF/water, Table 2): 8~12 g/mL; Appearance and stability of gel [4]: in good condition and remained at the bottom while standing for long time
6 | – | – | – | – | – | CCCCCCCCCCCCCCCCCC(=O)N[C@@H](Cc1ccc(O)c(O)c1)C(=O)O [FD-18] | – | Gelation concentration ([5]; Ethanol/water): 10~14 g/mL; Gelation concentration ([5]; MeOH/water): 10~15 g/mL
7 | – | – | – | – | – | CSCC[C@H](NC(=O)[C@@H](N)Cc1ccc(O)c(O)c1)C(=O)O [H-DOPA-Met-OH] (H-[Dopa]-Met-OH) | – | half-life [1]: 16 min
